One series can be described thus: pH stability. It is filed as physicochemical. The note with it: 5.5 mM, buffer/ethanol 5:1 v/v; for remaining at 100 h, 5500 µM: read-out: Residual amounts (%) after 100 hours; for Residual amounts (%) after 100 hours: 5500 µM. The source says:
The chromanol glycoside obtained in Examples 1 to 5 [6-hydroxy-2,5,7,8-tetramethyl chroman-2-methyl-α-D-glucopyranoside represented by the aforementioned formula (4)], the chromanol glycoside obtained in Examples 6 to 8 [6-hydroxy-2,5,7,8-tetramethyl chroman-2-ethyl-α-D-glucopyranoside represented by the aforementioned formula (7)], the chromanol glycoside obtained in Examples 4 and 5 [6-hydroxy-2,5,7,8-tetramethyl chroman-2-methyl-α-D-maltopyranoside represented by the aforementioned formula (5)], and the chromanol glycoside obtained in Example 8 [6 -hydroxy-2,5,7,8-tetramethyl chroman-2-ethyl-α-D-maltopyranoside represented by the aforementioned formula (8)] were tested for pH stability. This test was specifically performed by incubating a 5.5 mM chromanol glycoside solution (buffer/ethanol, 5:1 v/v) having a varying pH value. At regular intervals, aliquots of the reaction mixture were withdrawn and the residual amounts of chromanol glycoside were measured by HPC. For the purpose of comparison, the 2-substituted alcohols represented by the aforementioned formulas (3) and (6) and Trolox were similarly tested.
It is clearly noted from the test results that the conversion of 2-substituted alcohols into respective glycosides enhances pH stability. The buffer used for the test were 100 mM acetate buffer of pH 5.5, 100 mM phosphate buffer of pH 7.0, and 100 mM tris-HCl buffer of pH 8,5.

Series [1] in a line: antioxidant activity using liposomal membranes (phosphatidylcholine hydroperoxides). It is filed as biochemical. Conditions: 0.1 μmol antioxidant in 1.1 ml 10 mM tris-HCl buffer pH 7.4; water-soluble radical generator; in words. The source says:
Antioxidant activity on the chromanol glycoside obtained in Examples 1 to 5 [6-hydroxy-2,5,7,8-tetramethyl chroman-2-methyl-α-D-glucopyranoside represented by the aforementioned formula (4)[, the chromanol glycoside obtained in Examples 6 to 8 [6-hydroxy-2,5,7,8-tetramethyl chroman-2-ethyl-α-D-glucopyranoside represented by the aforementioned formula (7)], the chromanol glycoside obtained in Examples 4 and 5 [6-hydroxy-2,5,7,8-tetramethyl chroman-2-methyl-α-D-maltopyranoside represented by the aforementioned formula (5)], and the chromanol glycoside obtained in Example 8 [6-hydroxy-2,5,7,8-tetramethyl chroman-2-ethyl-α-D-malto-pyranoside represented by the aforementioned formula (8)] was investigated by using a liposonal membranes. Specifically, this test was performed by adjusting a reaction solution consisting of 5.5 μmol of a multilameller liposomes of egg yolk phosphatidylcholine, 16.5 μmol of a water-soluble radical generator [2,2'-azo-bis(2-amidinopropane) dihydrochloride], and 0.1 μmol of antioxidant in 1.1 ml of a 10 mM tris-HCl buffer (pH 7.4). At regular intervals, aliquots of the reaction mixture were withdrawn and the amount of phosphatidylcholine hydroperoxides were measured by HPLC.

The nature of series [2]: hydroperoxidation of methyl linoleate via radical chain reaction in hexane/isopropyl alcohol. It is filed as biochemical. Conditions: 0.1 μmol antioxidant in 1.1 ml hexane/isopropyl alcohol 1:1; 37 °C; oil-soluble radical generator; in words. An excerpt: Antioxidant activity on the chromanol glycoside obtained in Examples 1 to 5 [6-hydroxy-2,5,7,8-tetramethyl chroman-2-methyl-α-D-glucopyranoside represented by the aforementioned formula (4)], the chromanol glycoside obtained in Examples 6 to 8 [6-hydroxy-2,5,7,8-tetramethyl chroman-2-ethyl-α-D-glucopyranoside represented by the aforementioned formula (7)], the chromanol glycoside obtained in Examples 4 and 5 [6-hydroxy-2,5,7,8-tetramethyl chroman-2-methyl-α-D-maltopyranoside represented by the aforementioned formula (5)], and the chromanol glycoside obtained in Example 8 [6-hydroxy-2,5,7,8-tetramethyl chroman-2-ethyl-α-D-maltopyranoside represented by the aforementioned formula (8)] was investigated by measuring the hydroperoxidation of methyl linoleate via radical chain reaction. Specifically, this test was performed by incubating 132 μmol of methyl linoleate, 16.5 μmol of an oil-soluble radical generator [2,2'-azo-bis(2,4-dimethyl valeronitrile)], 0.1 μmol of antioxidant in 1.1 ml of a hexane/isopropyl alcohol (1:1 v/v), and the mixture was incubated at 37° C. At regular intervals, aliquots of the reaction mixture were withdrawn and the amount of methyl linoleate hydroperoxides were measured by HPLC. […] EXAMPLE 10

A short description of a further series: solubility in water. In kind it is physicochemical. The note with it: 25 °C, constant stirring at 200 rpm, HPLC; for solubility: water, read-out: solubility in water (amounts of sample dissolved in 1 ml of water). The source says: The chromanol glycoside obtained in Examples 1 to 5 [6-hydroxy-2,5,7,8-tetramethyl chroman-2-methyl-α-D-glucopyranoside represented by the aforementioned formula (4)], the chromanol glycoside obtained in Examples 6 to 8 [6-hydroxy-2,5,7,8-tetramethyl chroman-2-ethyl-α-D-glucopyranoside represented by the aforementioned formula (7)], the chromanol glycoside obtained in Examples 4 and 5 [6-hydroxy-2,5,7,8-tetramethyl chroman-2-methyl-α-D-maltopyranoside represented by the aforementioned formula (5)], and the chromanol glycoside obtained in Example 8 [6-hydroxy-2,5,7,8-tetramethyl chroman-2-ethyl-α-D-maltopyranoside represented by the aforementioned formula (8)] were tested for solubility in water. Specifically, this test was performed by adding an excess amount of a given chromanol glycoside to 1 ml of water. The reaction mixture was incubated at 25° C. for […] with constant stirring at 200 rpm. After 100 hours, the reaction mixture was transferred into a membrane filter (produced by Nihon Millipore Ltd. and marketed under trademark designation of "HPLC Sample Prep C02-LG") and insoluble substances were removed by centrifugation (4,100×g, 10 minutes, 20° C.). The filtered solution was subjected to HPLC to determine the amount of chromanol glycoside remaining in the aqueous solution. For the purpose of comparison, the 2-substituted alcohols represented by the aforementioned formulas (3) and […] and Trolox were similarly tested.
The numerals given in the tables represent the amounts of sample dissolved in 1 ml of water.

The mark [3] stands for this setting: acetate buffer/ethanol 5:1, pH 5.5, pH 5.5 (100 mM acetate buffer).
[4] abbreviates: phosphate buffer/ethanol 5:1, pH 7, pH 7.0 (100 mM phosphate buffer).
[5] abbreviates: tris-hcl buffer/ethanol 5:1, pH 8.5, pH 8.5 (100 mM tris-HCl buffer).

Structures are written as SMILES. Where two headings read alike, the source gives them in different places.

The term solubility denotes the concentration that dissolves in the medium under given conditions.

Take `Cc1c(C)c2c(c(C)c1O)CCC(C)(CO[C@H]1O[C@H](CO)[C@@H](O[C@H]3O[C@H](CO)[C@@H](O)[C@H](O)[C@H]3O)[C@H](O)[C@H]1O)O2` (stereo partly drawn) [formula (5), 6-hydroxy-2,5,7,8-tetramethyl chroman-2-methyl-α-D-maltopyranoside]: the remaining at 100 h, 5500 µM turned out to be 84% in the series “pH stability” (setting [3]), 40% in the series “pH stability” (setting [4]) and 19% in “pH stability” (setting [5]). Moreover, the “Residual amounts (%) after 100 hours” value is 86% in “pH stability” (pH 5.5 (100 mM acetate buffer), listed as formula (5) of Example 5, 6000 min); 44% in the series “pH stability” (pH 7.0 (100 mM phosphate buffer), listed as formula (5) of Example 5, 6000 min); 20% in the series “pH stability” (pH 8.5 (100 mM tris-HCl buffer), listed as formula (5) of Example 5, 6000 min). In series [1], the “antioxidant activity (phosphatidylcholine hydroperoxides)” value is reported as “more effective antioxidants than ascorbic acid”. For the same molecule, the “antioxidant activity (methyl linoleate hydroperoxides)” value in series [2] is “excel 3,5-tert-butyl-4-hydroxytoluene and equal α-tocopherol”.

On to `Cc1c(C)c2c(c(C)c1O)CCC(C)(CCO)O2` (racemic) [formula (6), reference compound], for which the remaining at 100 h, 5500 µM in the series “pH stability” (setting [3]) is 63%; in “pH stability” (setting [4]), 19%; in “pH stability” (setting [5]) it was 3%. Besides, in the series “solubility in water”, the solubility turned out to be 0.1 mg/mL.

On to `Cc1c(C)c2c(c(C)c1O)CCC(C)(CCO[C@H]1O[C@H](CO)[C@@H](O)[C@H](O)[C@H]1O)O2` (stereo partly drawn) [formula (7), 6-hydroxy-2,5,7,8-tetramethyl chroman-2-ethyl-α-D-glucopyranoside], for which the remaining at 100 h, 5500 µM was 69% in the series “pH stability” (setting [3]), 24% in the series “pH stability” (setting [4]) and 7% in the series “pH stability” (setting [5]). Moreover, the “Residual amounts (%) after 100 hours” value in “pH stability” (pH 5.5 (100 mM acetate buffer), listed as formula (7) of Example 7, 6000 min) is listed as 71%; in the series “pH stability” (pH 5.5 (100 mM acetate buffer), listed as formula (7) of Example 8, 6000 min) it was 70%; in the series “pH stability” (pH 7.0 (100 mM phosphate buffer), listed as formula (7) of Example 7, 6000 min) it was 26%; in the series “pH stability” (pH 7.0 (100 mM phosphate buffer), listed as formula (7) of Example 8, 6000 min), 25%; in the series “pH stability” (pH 8.5 (100 mM tris-HCl buffer), listed as formula (7) of Example 8, 6000 min) it was 8%. The “antioxidant activity (phosphatidylcholine hydroperoxides)” value in series [1] is recorded as “more effective antioxidants than ascorbic acid”. Moreover, the “solubility in water (amounts of sample dissolved in 1 ml of water)” value in “solubility in water” (listed as formula (7) of Example 7) and in “solubility in water” (listed as formula (7) of Example 8) was 45 mg/mL in each case. Besides, the solubility in “solubility in water” is 33 mg/mL. Moreover, the “antioxidant activity (methyl linoleate hydroperoxides)” value in series [2] is “excel 3,5-tert-butyl-4-hydroxytoluene and equal α-tocopherol”.

On to `Cc1c(C)c2c(c(C)c1O)CCC(C)(CO)O2` (racemic) [formula (3), reference compound], for which the figures for the remaining at 100 h, 5500 µM in “pH stability” (setting [3]), in the series “pH stability” (setting [4]) and in “pH stability” (setting [5]) were 73%, 29% and 7%, respectively. Moreover, the solubility in the series “solubility in water” was found to be 1 mg/mL.

On to `Cc1c(C)c2c(c(C)c1O)CCC(C)(CCO[C@H]1O[C@H](CO)[C@@H](O[C@H]3O[C@H](CO)[C@@H](O)[C@H](O)[C@H]3O)[C@H](O)[C@H]1O)O2` (stereo partly drawn) [formula (8), 6-hydroxy-2,5,7,8-tetramethyl chroman-2-ethyl-α-D-maltopyranoside], for which the remaining at 100 h, 5500 µM is 57% in the series “pH stability” (setting [3]), 16% in the series “pH stability” (setting [4]) and 2% in the series “pH stability” (setting [5]). For the same molecule, the “antioxidant activity (phosphatidylcholine hydroperoxides)” value in series [1] is reported as “more effective antioxidants than ascorbic acid”. Further, the solubility in “solubility in water” is 141 mg/mL. Besides, the “antioxidant activity (methyl linoleate hydroperoxides)” value in series [2] was “excel 3,5-tert-butyl-4-hydroxytoluene and equal α-tocopherol”.

The record behind these values is patent US5478812A, “Chromanol glycoside and method for production thereof” (CCI Corporation, priority 1993, dated 1995).
